# Measured values: US20220296613A1, “FOOD-INDEPENDENT DOSING OF CV-10155 TO TREAT GABAA DISORDERS” (priority 2021, published 2022)
# Read-outs that look alike come from different tables or passages of the source.
# Tests used:
# [1] = dog, in vivo, 1 mg/kg
# [2] = biological target: α1β2γ2 GABAA receptors (Homo sapiens, UniProt P14867+P47870); test: Synchropatch electrophysiology, potentiation of synaptic GABAA receptors; format: cell-based; conditions: for Emax: α1β2γ2 Synaptic receptors, Synchropatch electrophysiology, read-out: Emax - efficacy: % of potentiation
# [3] = biological target: α4β3δ GABAA receptors (Homo sapiens, UniProt P28472+P48169); test: Synchropatch electrophysiology, potentiation of extra synaptic GABAA receptors; format: cell-based
# [4] = humans, cited from earlier work
# [5] = humans, cited from earlier work; remark: listed apart in the source
# [6] = tested on: Forced swim test; test: Forced swim test - Depression; format: in vivo, rodent; conditions: preclinical animal model
# [7] = humans, cited from earlier work; remark: listed apart in the source
# [8] = 30 mg, day 7 MAD (MTD), morning dosing
# α1β2γ2 GABAA receptors, sequence (P14867 28-456): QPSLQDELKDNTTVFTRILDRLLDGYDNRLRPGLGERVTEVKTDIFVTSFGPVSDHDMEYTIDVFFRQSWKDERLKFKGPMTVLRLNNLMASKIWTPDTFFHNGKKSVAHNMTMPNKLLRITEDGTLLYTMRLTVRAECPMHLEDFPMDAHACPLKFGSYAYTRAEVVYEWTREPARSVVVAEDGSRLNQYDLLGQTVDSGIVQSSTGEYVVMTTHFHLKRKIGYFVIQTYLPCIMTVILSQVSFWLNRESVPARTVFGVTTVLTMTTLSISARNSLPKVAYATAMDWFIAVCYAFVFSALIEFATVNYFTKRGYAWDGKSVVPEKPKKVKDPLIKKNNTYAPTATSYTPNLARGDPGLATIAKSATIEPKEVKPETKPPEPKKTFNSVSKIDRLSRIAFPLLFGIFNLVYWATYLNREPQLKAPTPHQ
# α1β2γ2 GABAA receptors, sequence (P47870 25-512 limits assumed): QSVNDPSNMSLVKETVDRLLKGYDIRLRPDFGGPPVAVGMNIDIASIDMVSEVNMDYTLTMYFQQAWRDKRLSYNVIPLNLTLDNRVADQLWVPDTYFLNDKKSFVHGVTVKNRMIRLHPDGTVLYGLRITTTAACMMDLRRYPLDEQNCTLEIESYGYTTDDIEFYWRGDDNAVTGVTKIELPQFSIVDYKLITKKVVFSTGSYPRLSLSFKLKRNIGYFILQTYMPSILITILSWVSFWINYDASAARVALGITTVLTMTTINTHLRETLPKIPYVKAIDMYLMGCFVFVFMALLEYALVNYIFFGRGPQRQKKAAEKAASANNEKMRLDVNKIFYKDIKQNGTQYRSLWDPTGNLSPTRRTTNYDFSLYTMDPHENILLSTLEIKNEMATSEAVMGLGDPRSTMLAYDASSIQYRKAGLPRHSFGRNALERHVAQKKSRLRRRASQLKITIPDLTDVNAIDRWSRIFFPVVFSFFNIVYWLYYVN
# α1β2γ2 GABAA receptors, sequence (P18507 40-475 partner): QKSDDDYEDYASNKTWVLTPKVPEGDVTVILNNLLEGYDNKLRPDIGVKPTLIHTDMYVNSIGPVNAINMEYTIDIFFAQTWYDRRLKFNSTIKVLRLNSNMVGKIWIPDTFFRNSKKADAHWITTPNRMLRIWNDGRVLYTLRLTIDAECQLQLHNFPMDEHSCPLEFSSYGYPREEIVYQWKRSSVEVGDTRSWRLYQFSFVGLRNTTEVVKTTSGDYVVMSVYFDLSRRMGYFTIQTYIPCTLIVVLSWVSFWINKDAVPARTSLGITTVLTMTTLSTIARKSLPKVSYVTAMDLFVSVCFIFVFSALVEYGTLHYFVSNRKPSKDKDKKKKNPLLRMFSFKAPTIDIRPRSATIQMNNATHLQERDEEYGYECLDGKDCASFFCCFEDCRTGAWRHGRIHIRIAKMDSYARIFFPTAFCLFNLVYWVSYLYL
# α4β3δ GABAA receptors, sequence (P48169 36-554): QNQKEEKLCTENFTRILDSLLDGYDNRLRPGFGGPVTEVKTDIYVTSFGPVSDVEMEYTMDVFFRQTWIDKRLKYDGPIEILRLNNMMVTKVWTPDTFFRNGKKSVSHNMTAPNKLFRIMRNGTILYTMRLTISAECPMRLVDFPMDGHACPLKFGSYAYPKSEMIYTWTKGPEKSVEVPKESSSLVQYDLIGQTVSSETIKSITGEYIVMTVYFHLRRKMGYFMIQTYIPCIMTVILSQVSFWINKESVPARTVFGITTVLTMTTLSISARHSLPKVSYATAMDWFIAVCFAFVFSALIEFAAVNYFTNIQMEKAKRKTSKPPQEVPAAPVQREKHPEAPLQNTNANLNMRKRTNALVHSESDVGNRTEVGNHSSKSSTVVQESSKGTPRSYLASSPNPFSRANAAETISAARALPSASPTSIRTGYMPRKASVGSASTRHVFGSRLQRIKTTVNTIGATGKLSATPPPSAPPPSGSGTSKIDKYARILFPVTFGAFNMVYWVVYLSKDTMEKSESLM
# α4β3δ GABAA receptors, sequence (P28472 26-473): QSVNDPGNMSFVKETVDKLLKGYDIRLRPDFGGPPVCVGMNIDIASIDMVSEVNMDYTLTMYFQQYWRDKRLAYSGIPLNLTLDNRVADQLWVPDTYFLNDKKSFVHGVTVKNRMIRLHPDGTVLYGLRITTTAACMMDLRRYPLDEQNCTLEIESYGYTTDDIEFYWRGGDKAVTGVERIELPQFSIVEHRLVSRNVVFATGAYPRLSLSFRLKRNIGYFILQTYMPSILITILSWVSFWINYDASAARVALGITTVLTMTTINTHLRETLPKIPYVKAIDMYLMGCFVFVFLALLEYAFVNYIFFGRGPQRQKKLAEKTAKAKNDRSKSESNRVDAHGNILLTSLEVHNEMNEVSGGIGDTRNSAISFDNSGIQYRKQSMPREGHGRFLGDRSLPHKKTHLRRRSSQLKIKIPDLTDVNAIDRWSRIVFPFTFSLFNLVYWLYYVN
# α4β3δ GABAA receptors, sequence (O14764 25-452 partner): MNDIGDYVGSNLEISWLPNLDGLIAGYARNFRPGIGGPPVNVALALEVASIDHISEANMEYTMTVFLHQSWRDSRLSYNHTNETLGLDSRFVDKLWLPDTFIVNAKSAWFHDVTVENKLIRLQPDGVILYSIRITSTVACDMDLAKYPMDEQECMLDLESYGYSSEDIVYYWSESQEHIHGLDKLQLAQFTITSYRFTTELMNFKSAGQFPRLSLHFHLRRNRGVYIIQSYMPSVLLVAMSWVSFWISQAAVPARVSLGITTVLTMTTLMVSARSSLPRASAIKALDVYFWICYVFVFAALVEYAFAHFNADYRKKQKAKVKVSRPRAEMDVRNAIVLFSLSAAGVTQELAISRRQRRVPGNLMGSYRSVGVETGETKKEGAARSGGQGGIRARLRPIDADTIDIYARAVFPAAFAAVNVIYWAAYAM
structure (smiles),measurement,setting,value
C[C@@]1(O)CC[C@@]2(C)[C@@H](CC[C@@H]3[C@@H]2CC[C@]2(C)[C@@H](C(=O)Cn4cc(C#N)cn4)CC[C@@H]32)C1 [CV-10155 (Labrosol)],Cmax,[1]; po,266 ng/mL
same,Tmax,[1]; po,0.625 h
same,T½,[1]; po,18.93 h
"CC(=O)[C@H]1CC[C@H]2[C@@H]3CC[C@H]4C[C@](C)(O)CC[C@]4(C)[C@H]3CC[C@]12C [Ganaxolone, ganaxolone]",EC50,[2],90 nM
same,Emax,[2],745%
same,EC50,[3],213 nM
C[C@@]1(O)CC[C@H]2[C@H](CC[C@@H]3[C@@H]2CC[C@]2(C)[C@@H](C(=O)Cn4cc(C#N)cn4)CC[C@@H]32)C1 [Sage-217],EC50,[2],189 nM
same,Emax,[2],1000%
same,AUC(0-inf),[4]; 55 mg SAD MTD,1633 ng·h/mL
same,Cmax,[4]; 55 mg SAD MTD,149.9 ng/mL
same,T1/2,[4]; 55 mg SAD MTD,17.02 h
same,Tmax,[4]; 55 mg SAD MTD,1.24 h
same,"MTD, single ascending dose (SAD)",[4],SAGE-217 55 mg SAD MTD
same,ratio of Cmax/trough on day 7,[5]; 30 mg daily in the evening in a fed state,5.88
same,AUC0_inf,[5]; [8],833.2 h*ng/m1
same,Cmax,[5]; [8],115.2 ng/mL
same,Cmin,[5]; [8],12.46 ng/mL
same,Ratio (Cmax/Cmin),[5]; [8],9.24
same,T1/2,[5]; [8],15.27 h
same,Tmax,[5]; [8],1 h
same,"MTD, multiple ascending dose (MAD)",[5]; morning dosing,SAGE-217 30mg
same,"Forced swim test - Depression: doses tested, * = significantly efficacious dose",[6],1 - 3* mg/kg
same,"Any adverse event, %",[7]; 20 mg (n-188),50.0%
same,"Diarrhea, %",[7]; 20 mg (n-188),5.9%
same,"Dizziness, %",[7]; 20 mg (n-188),7.4%
same,"Fatigue, %",[7]; 20 mg (n-188),1.6%
same,"Headache, %",[7]; 20 mg (n-188),11.2%
same,"Nausea, %",[7]; 20 mg (n-188),5.3%
same,"Sedation, %",[7]; 20 mg (n-188),5.9%
same,"Somnolence, %",[7]; 20 mg (n-188),5.9%
same,"Any adverse event, %",[7]; 30 mg (n-192),54.2%
same,"Diarrhea, %",[7]; 30 mg (n-192),6.3%
same,"Dizziness, %",[7]; 30 mg (n-192),5.7%
same,"Fatigue, %",[7]; 30 mg (n-192),6.8%
same,"Headache, %",[7]; 30 mg (n-192),6.3%
same,"Nausea, %",[7]; 30 mg (n-192),3.6%
same,"Sedation, %",[7]; 30 mg (n-192),4.7%
same,"Somnolence, %",[7]; 30 mg (n-192),6.8%
same,EC50,[3],148 nM
C[C@@]1(O)CC[C@@]2(C)[C@@H](CC[C@@H]3[C@@H]2CC[C@]2(C)[C@@H](C(=O)Cn4cc(C#N)cn4)CC[C@@H]32)C1 [CV-10155 (30% HPbCD)],Cmax,[1]; iv,1732 ng/mL
same,T½,[1]; iv,13.93 h
same,Cmax,[1]; po,510 ng/mL
same,Tmax,[1]; po,0.75 h
same,T½,[1]; po,13.62 h
